System: patients with advanced solid tumors
Assay: First-in-human phase 1 dose-escalation study: safety, DLTs, adverse events
Assay type: in vivo
Conditions: for TRAE Blood Lactic Acid increased, > G3 (patients) / TRAE Blood Lactic Acid increased, All grades (patients) / TRAE Constipation, > G3 (patients) / TRAE Constipation, All grades (patients) / TRAE Decreased appetite, > G3 (patients) / TRAE Decreased appetite, All grades (patients) / TRAE Diarrhoea, > G3 (patients) / TRAE Diarrhoea, All grades (patients) / TRAE Fatigue, > G3 (patients) / TRAE Fatigue, All grades (patients) / TRAE Insomnia, > G3 (patients) / TRAE Insomnia, All grades (patients) / TRAE Nausea, > G3 (patients) / TRAE Nausea, All grades (patients) / TRAE Vomiting, > G3 (patients) / TRAE Vomiting, All grades (patients) / TRAE Abdominal Pain, > G3 (patients) / TRAE Abdominal Pain, All grades (patients): N = 3
Source text: This multicenter first-in-human dose-escalation phase 1 study (clinicaltrials.gov identifier: NCT03272256) was designed to determine the MTD or RP2D and to evaluate the safety and tolerability of IM156. Secondary endpoints included PK characteristics, efficacy assessment (objective response rate [ORR], disease control rate [DCR], duration of response [DoR] and progression-free survival [PFS]). Furthermore, exploratory objectives included identification and profiling of IM156 metabolites, evaluations of exploratory PD markers of IM156, and evaluations of any potential relationship between putative biomarkers and safety/efficacy parameters of IM156. The study was conducted in accordance with Good Clinical Practice, the International Council for Harmonisation, and guidelines governing clinical study conduct and the ethical principles originating from the Declaration of Helsinki. The study was approved by each Institutional Review Board and patients provided written informed consent. Patients were enrolled at three sites in South Korea.
The initial dose and schedule of IM156 was chosen based on animal toxicology studies. […] IM156 was administered in the fasted state, with no food for at least 2 h before and 1 h after dosing.
Three DLT-evaluable patients were enrolled at each dose level. If there were no DLTs or other prohibitive adverse events (AEs), the Safety Committee was allowed to recommend escalation to the next highest dose level. If 1 DLT occurred in the first 3 DLT-evaluable patients, enrollment in that cohort was expanded to an additional 3 DLT-evaluable patients; if ≥ 2 DLTs were reported in a cohort, that dose was considered above the MTD.
Safety was assessed through vital signs, weight, laboratory assessments, physical examinations, electrocardiogram, and reporting of AEs as graded by the National Cancer Institute’s Common Terminology Criteria for Adverse Events v4.03 (NCI-CTCAE).
DLTs were defined as the following AEs if they were attributed as related to IM156: asymptomatic grade 4 neutropenia lasting for ≥ 5 days; febrile neutropenia, regardless of grade; grade 4 thrombocytopenia or grade 3 thrombocytopenia with bleeding; any grade ≥ 3 non-hematologic AE (except grade 3 hypertension and grade 3 nausea, vomiting or diarrhea for which proper measures for prevention and treatment were not implemented, and alopecia); blood lactate levels > 5 mmol; grade ≥ 2 AE prohibiting dosing of IM156 for ≥ 21 continuous days except for alterations in serum calcium or phosphorus levels. The safety analysis includes all patients who received at least one dose of study drug.
The safety population was defined as all patients who received at least one dose of IM156. The PK population was not defined in the protocol but included all patients with sufficient PK data to perform adequate PK modeling. The efficacy population included all patients who underwent at least one tumor imaging assessment while receiving IM156. Safety was assessed using descriptive statistics (e.g., DLTs, AEs, laboratory tests, physical examination, 12-lead ECG). The incidence and number of events were reported for the DLTs observed in Cycle 1 per dose group. […] Adverse events and TRAEs were standardized with the System Organ Class and the Preferred Term using the Medical Dictionary for Regulatory Activities v23.0. In addition, TEAEs, serious adverse events (SAEs), TEAE severity, and TEAEs leading to withdrawal were presented by dose group. Efficacy data were to be presented by Waterfall and Swim Lane plots. Time to event endpoints (e.g., DoR, PFS) were determined using Kaplan–Meier estimations with the median value for each endpoint summarized.

[1] = DL3 400 mg orally every other day (n=3)
[2] = DL4 800 mg orally every other day (n=3)
[3] = DL5 1200 mg orally every other day (n=3)

## NC(=Nc1ccc(OC(F)(F)F)cc1)N=C(N)N1CCCC1 [IM156]
DL3 400 mg QOD oral
  TRAE Blood Lactic Acid increased, > G3 (patients): 0
  TRAE Blood Lactic Acid increased, All grades (patients): 0
  TRAE Constipation, > G3 (patients): 0
  TRAE Constipation, All grades (patients): 0
  TRAE Decreased appetite, > G3 (patients): 0
  TRAE Decreased appetite, All grades (patients): 0
  TRAE Diarrhoea, > G3 (patients): 0
  TRAE Diarrhoea, All grades (patients): 0
  TRAE Fatigue, > G3 (patients): 0
  TRAE Fatigue, All grades (patients): 0
  TRAE Insomnia, > G3 (patients): 0
  TRAE Insomnia, All grades (patients): 1
  TRAE Nausea, > G3 (patients): 0
  TRAE Nausea, All grades (patients): 3
  TRAE Vomiting, > G3 (patients): 0
  TRAE Vomiting, All grades (patients): 1
[1]
  TEAE Adrenal insufficiency grade 1: 0
  TEAE Adrenal insufficiency grade 2: 0
  TEAE Adrenal insufficiency grade 3: 0
  TEAE Adrenal insufficiency grade 4: 0
  TEAE Anaemia grade 1: 0
  TEAE Anaemia grade 2: 0
  TEAE Anaemia grade 3: 0
  TEAE Anaemia grade 4: 0
  TEAE Appendicitis perforated grade 1: 0
  TEAE Appendicitis perforated grade 2: 0
  TEAE Appendicitis perforated grade 3: 0
  TEAE Appendicitis perforated grade 4: 0
  TEAE Back pain grade 1: 0
  TEAE Back pain grade 2: 0
  TEAE Back pain grade 3: 0
  TEAE Back pain grade 4: 0
  TEAE Cystitis grade 1: 0
  TEAE Cystitis grade 2: 0
  TEAE Cystitis grade 3: 0
  TEAE Cystitis grade 4: 0
  TEAE Dry skin grade 1: 0
  TEAE Dry skin grade 2: 0
  TEAE Dry skin grade 3: 0
  TEAE Dry skin grade 4: 0
  TEAE Flank pain grade 1: 0
  TEAE Flank pain grade 2: 0
  TEAE Flank pain grade 3: 0
  TEAE Flank pain grade 4: 0
  TEAE Hypertension grade 1: 0
  TEAE Hypertension grade 2: 1
  TEAE Hypertension grade 3: 0
  TEAE Hypertension grade 4: 0
  TEAE Hypotension grade 1: 0
  TEAE Hypotension grade 2: 0
  TEAE Hypotension grade 3: 0
  TEAE Hypotension grade 4: 0
  TEAE Insomnia grade 1: 1
  TEAE Insomnia grade 2: 0
  TEAE Insomnia grade 3: 0
  TEAE Insomnia grade 4: 0
  TEAE Pain in extremity grade 1: 1
  TEAE Pain in extremity grade 2: 0
  TEAE Pain in extremity grade 3: 0
  TEAE Pain in extremity grade 4: 0
  TEAE Pruritus grade 1: 0
  TEAE Pruritus grade 2: 0
  TEAE Pruritus grade 3: 0
  TEAE Pruritus grade 4: 0
  TEAE Psychiatric disorders grade 1: 1
  TEAE Psychiatric disorders grade 2: 0
  TEAE Psychiatric disorders grade 3: 0
  TEAE Psychiatric disorders grade 4: 0
  TEAE Purpura grade 1: 0
  TEAE Purpura grade 2: 0
  TEAE Purpura grade 3: 0
  TEAE Purpura grade 4: 0
  TEAE Urinary retention grade 1: 0
  TEAE Urinary retention grade 2: 0
  TEAE Urinary retention grade 3: 0
  TEAE Urinary retention grade 4: 0
  TEAE Urinary tract disorder grade 1: 0
  TEAE Urinary tract disorder grade 2: 0
  TEAE Urinary tract disorder grade 3: 0
  TEAE Urinary tract disorder grade 4: 0
DL4 800 mg QOD (n=3)
  TEAE Abdominal pain upper, grade 2: 1
  TEAE Abdominal pain, grade 1: 1
  TEAE Abdominal pain, grade 3: 1
  TEAE Asthenia, grade 1: 1
  TEAE Chest pain, grade 1: 1
  TEAE Constipation, grade 1: 1
  TEAE Constipation, grade 2: 1
  TEAE Cough, grade 1: 1
  TEAE Diarrhoea, grade 1: 3
  TEAE Fatigue, grade 1: 1
  TEAE Nausea, grade 1: 2
  TEAE Nausea, grade 2: 1
DL4 800 mg QOD oral
  TRAE Abdominal Pain, > G3 (patients): 0
  TRAE Abdominal Pain, All grades (patients): 1
  TRAE Blood Lactic Acid increased, > G3 (patients): 0
  TRAE Blood Lactic Acid increased, All grades (patients): 0
  TRAE Constipation, > G3 (patients): 0
  TRAE Constipation, All grades (patients): 0
  TRAE Decreased appetite, > G3 (patients): 0
  TRAE Decreased appetite, All grades (patients): 0
  TRAE Diarrhoea, > G3 (patients): 0
  TRAE Diarrhoea, All grades (patients): 3
  TRAE Fatigue, > G3 (patients): 0
  TRAE Fatigue, All grades (patients): 1
  TRAE Insomnia, > G3 (patients): 0
  TRAE Insomnia, All grades (patients): 0
  TRAE Nausea, > G3 (patients): 0
  TRAE Nausea, All grades (patients): 3
  TRAE Vomiting, > G3 (patients): 0
  TRAE Vomiting, All grades (patients): 0
[2]
  TEAE Adrenal insufficiency grade 1: 0
  TEAE Adrenal insufficiency grade 2: 0
  TEAE Adrenal insufficiency grade 3: 0
  TEAE Adrenal insufficiency grade 4: 0
  TEAE Anaemia grade 1: 0
  TEAE Anaemia grade 2: 0
  TEAE Anaemia grade 3: 0
  TEAE Anaemia grade 4: 0
  TEAE Appendicitis perforated grade 1: 0
  TEAE Appendicitis perforated grade 2: 0
  TEAE Appendicitis perforated grade 3: 0
  TEAE Appendicitis perforated grade 4: 0
  TEAE Back pain grade 1: 0
  TEAE Back pain grade 2: 2
  TEAE Back pain grade 3: 0
  TEAE Back pain grade 4: 0
  TEAE Cystitis grade 1: 0
  TEAE Cystitis grade 2: 1
  TEAE Cystitis grade 3: 0
  TEAE Cystitis grade 4: 0
  TEAE Dry skin grade 1: 0
  TEAE Dry skin grade 2: 0
  TEAE Dry skin grade 3: 0
  TEAE Dry skin grade 4: 0
  TEAE Flank pain grade 1: 0
  TEAE Flank pain grade 2: 0
  TEAE Flank pain grade 3: 0
  TEAE Flank pain grade 4: 0
  TEAE Hypertension grade 1: 0
  TEAE Hypertension grade 2: 0
  TEAE Hypertension grade 3: 0
  TEAE Hypertension grade 4: 0
  TEAE Hypotension grade 1: 0
  TEAE Hypotension grade 2: 0
  TEAE Hypotension grade 3: 0
  TEAE Hypotension grade 4: 0
  TEAE Insomnia grade 1: 0
  TEAE Insomnia grade 2: 0
  TEAE Insomnia grade 3: 0
  TEAE Insomnia grade 4: 0
  TEAE Pain in extremity grade 1: 0
  TEAE Pain in extremity grade 2: 1
  TEAE Pain in extremity grade 3: 0
  TEAE Pain in extremity grade 4: 0
  TEAE Pruritus grade 1: 0
  TEAE Pruritus grade 2: 0
  TEAE Pruritus grade 3: 0
  TEAE Pruritus grade 4: 0
  TEAE Psychiatric disorders grade 1: 0
  TEAE Psychiatric disorders grade 2: 0
  TEAE Psychiatric disorders grade 3: 0
  TEAE Psychiatric disorders grade 4: 0
  TEAE Purpura grade 1: 0
  TEAE Purpura grade 2: 0
  TEAE Purpura grade 3: 0
  TEAE Purpura grade 4: 0
  TEAE Urinary retention grade 1: 0
  TEAE Urinary retention grade 2: 1
  TEAE Urinary retention grade 3: 0
  TEAE Urinary retention grade 4: 0
  TEAE Urinary tract disorder grade 1: 0
  TEAE Urinary tract disorder grade 2: 0
  TEAE Urinary tract disorder grade 3: 0
  TEAE Urinary tract disorder grade 4: 0
DL5 1200 mg QOD (n=3)
  TEAE Abdominal pain, grade 1: 1
  TEAE Alanine aminotransferase increased, grade 3: 1
  TEAE Aspartate aminotransferase increased, grade 2: 1
  TEAE Aspartate aminotransferase increased, grade 3: 1
  TEAE Asthenia, grade 1: 1
  TEAE Blood alkaline phosphatase increased, grade 2: 1
  TEAE Blood alkaline phosphatase increased, grade 3: 1
  TEAE Constipation, grade 1: 1
  TEAE Decreased appetite, grade 1: 1
  TEAE Diarrhoea, grade 1: 1
  TEAE Diarrhoea, grade 2: 1
  TEAE Fatigue, grade 2: 1
  TEAE Gamma-glutamyltransferase increased, grade 2: 1
  TEAE Gamma-glutamyltransferase increased, grade 3: 1
  TEAE Headache, grade 1: 1
  TEAE Hypoalbuminaemia, grade 2: 1
  TEAE Hypocalcemia, grade 2: 1
  TEAE Nausea, grade 1: 1
  TEAE Nausea, grade 3: 1
  TEAE Oropharyngeal pain, grade 1: 1
  TEAE Pyrexia, grade 1: 1
  TEAE Vomiting, grade 1: 1
  TEAE Vomiting, grade 2: 1
DL5 1,200 mg QOD oral
  TRAE Abdominal Pain, > G3 (patients): 0
  TRAE Abdominal Pain, All grades (patients): 0
  TRAE Blood Lactic Acid increased, > G3 (patients): 0
  TRAE Blood Lactic Acid increased, All grades (patients): 0
  TRAE Constipation, > G3 (patients): 0
  TRAE Constipation, All grades (patients): 0
  TRAE Decreased appetite, > G3 (patients): 0
  TRAE Decreased appetite, All grades (patients): 1
  TRAE Diarrhoea, > G3 (patients): 0
  TRAE Diarrhoea, All grades (patients): 2
  TRAE Fatigue, > G3 (patients): 0
  TRAE Fatigue, All grades (patients): 0
  TRAE Insomnia, > G3 (patients): 0
  TRAE Insomnia, All grades (patients): 0
  TRAE Nausea, > G3 (patients): 1
  TRAE Nausea, All grades (patients): 2
  TRAE Vomiting, > G3 (patients): 0
  TRAE Vomiting, All grades (patients): 2
[3]
  TEAE Adrenal insufficiency grade 1: 0
  TEAE Adrenal insufficiency grade 2: 1
  TEAE Adrenal insufficiency grade 3: 0
  TEAE Adrenal insufficiency grade 4: 0
  TEAE Anaemia grade 1: 0
  TEAE Anaemia grade 2: 0
  TEAE Anaemia grade 3: 1
  TEAE Anaemia grade 4: 0
  TEAE Appendicitis perforated grade 1: 0
  TEAE Appendicitis perforated grade 2: 0
  TEAE Appendicitis perforated grade 3: 0
  TEAE Appendicitis perforated grade 4: 0
  TEAE Back pain grade 1: 0
  TEAE Back pain grade 2: 0
  TEAE Back pain grade 3: 0
  TEAE Back pain grade 4: 0
  TEAE Cystitis grade 1: 0
  TEAE Cystitis grade 2: 0
  TEAE Cystitis grade 3: 0
  TEAE Cystitis grade 4: 0

Source: article PMC9395488, “First-in-human study of IM156, a novel potent biguanide oxidative phosphorylation (OXPHOS) inhibitor, in patients with advanced solid tumors” (Investigational New Drugs, 2022)
